Literature values as cited in patent US12649947B2, “Method of treatment using genetic predictors of a response to treatment with CRHR1 antagonists” (HMNC Holding GmbH, priority 2015, dated 2026).

System: mice overexpressing CRH in the forebrain

## COCC(COC)Nc1nc(C)nc2c(-c3ccc(Cl)cc3Cl)c(C)nn12 [DMP696]
  effect on REM sleep enhancement: could reverse the REM enhancement
